We go through eight molecules from patent US20060111378A1, “Substituted 2-anilinopyrimidines as cell-cycle-kinase or receptor-tyrosine-kinase inhibitors, their production and use as pharmaceutical agents” (priority 2004, published 2006).

In one experiment the target is T1, CDK1/CycB (Homo sapiens, UniProt P06493).
T1 construct: GST; purchased ProQinase GmbH, Freiburg; host or cells: baculovirus-infected insect cells (Sf9)
The experiment is described as follows: CDK1/CycB kinase assay. Conditions: histone IIIS substrate, 0.5 μm ATP. It is filed as biochemical. The procedure: Recombinant CDK1- and CycB-GST-fusion proteins, purified from baculovirus-infected insect cells (Sf9), were purchased from ProQinase GmbH, Freiburg. Histone IIIS, used as a kinase substrate, is available commercially from the Sigma Company.
CDK1/CycB (200 ng/measuring point) was incubated for 10 minutes at 22° C. in the presence of various concentrations of test substances (0 μm, as well as within the range of 0.01-100 μm) in assay buffer [50 mmol of tris/HCl, pH 8.0, 10 mmol of MgCl2, 0.1 mmol of Na ortho-vanadate, 1.0 mmol of dithiothreitol, 0.5 μm of adenosine triphosphate (ATP), 10 μg/measuring point of histone IIIS, 0.2 μCi/measuring point of 33P-gamma ATP, 0.05% NP40, 1.25% dimethyl sulfoxide]. The reaction was stopped by adding EDTA solution (250 mmol, pH 8.0, 15 μl/measuring point).
(§1) From each reaction batch, 15 μl was applied to P30 filter strips (Wallac Company), and non-incorporated 33P-ATP was removed by subjecting the filter strips to three washing cycles for 10 minutes each in 0.5% phosphoric acid. After the filter strips were dried for one hour at 70° C., the filter strips were covered with scintillator strips (MeltiLex™ A, Wallac Company) and baked for one hour at 90° C. The amount of incorporated 33P (substrate phosphorylation) was determined by scintillation measurement in a gamma-radiation measuring device (Wallac).

Experiment [1] has as its system MCF7, hormone-independent human breast cancer cells. The experiment is described as follows: Proliferation assay MCF7. Type of experiment: cell-based. The settings on record: 96 h, 4 days, crystal violet. An excerpt: (§2) Cultivated human tumor cells (MCF7, hormone-independent human breast cancer cells, related to ATCC HTB22; NCI-H460, human non-small-cell lung cancer cells, ATCC HTB-177, DU 145, hormone-independent human prostate cancer cells, ATCC HTB-81; MaTu-MDR, hormone-independent, multiple pharmaceutical agent-resistant human breast cancer cells, EPO-GmbH, Berlin) were flattened out at a density of about 3000-5000 cells/measuring point, depending on the growth rate of the respective cells, in a 96-well multititer plate in 200 μl of the corresponding growth medium. After 24 hours, the cells of one plate (zero-point plate) were colored with crystal violet (see below), while the medium of the other plates was replaced by fresh culture medium (200 μl), to which the test substances were added in various concentrations (0 μm, as well as in the range of 0.01-30 μm; the final concentration of the solvent dimethyl sulfoxide was 0.5%). The cells were incubated for 4 days in the presence of test substances. The cell proliferation was determined by coloring the cells with crystal violet: the cells were fixed by adding 20 μl/measuring point of an 11% glutaric aldehyde solution for 15 minutes at room temperature. After three washing cycles of the fixed cells with water, the plates were dried at room temperature. The cells were colored by adding 100 μl/measuring point of a 0.1% crystal violet solution (the pH was set at 3 by adding acetic acid). After three washing cycles of the colored cells with water, the plates were dried at room temperature. The dye was dissolved by adding 100 μl/measuring point of a 10% acetic acid solution. The extinction was determined by photometry at a wavelength of 595 nm. The change of cell growth, in percent, was calculated by normalization of the measured values to the extinction values of the zero-point plate (=0%) and the extinction of the untreated (0 μm) cells (=100%).

The target of the next experiment is T2, CDK2/CycE (Homo sapiens, UniProt P24941).
T2 construct: GST; purchased ProQinase GmbH, Freiburg; host or cells: baculovirus-infected insect cells (Sf9)
The experiment is described as follows: CDK2/CycE kinase assay. The settings on record: histone IIIS substrate, 0.5 μm ATP. It is filed as biochemical. As to the method: Recombinant CDK2- and CycE-GST-fusion proteins, purified from baculovirus-infected insect cells (Sf9), were purchased by ProQinase GmbH, Freiburg. Histone IIIs, which was used as a kinase substrate, was purchased by the Sigma Company.
CDK2/CycE (50 ng/measuring point) was incubated for 10 minutes at 22° C. in the presence of various concentrations of test substances (0 μm, as well as within the range of 0.01-100 μm) in assay buffer [50 mmol of tris/HCl, pH 8.0, 10 mmol of MgCl2, 0.1 mmol of Na ortho-vanadate, 1.0 mmol of dithiothreitol, 0.5 μm of adenosine triphosphate (ATP), 10 μg/measuring point of histone IIIS, 0.2 μCi/measuring point of ^33P-gamma ATP, 0.05% NP40, 12.5% dimethyl sulfoxide]. The reaction was stopped by adding EDTA solution (250 mmol, pH 8.0, 15 μl/measuring point).
From each reaction batch, 15 μl was applied to P30 filter strips (Wallac Company), and non-incorporated ^33P-ATP was removed by subjecting the filter strips to three washing cycles for 10 minutes each in 0.5% phosphoric acid. After the filter strips were dried for one hour at 70° C., the filter strips were covered with scintillator strips (MeltiLex™ A, Wallac Company) and baked for one hour at 90° C. The amount of incorporated ^33P (substrate phosphorylation) was determined by scintillation measurement in a gamma-radiation measuring device (Wallac).

The target in the next experiment is Human Carboanhydrase-2 (Homo sapiens, UniProt P00918). The experiment is described as follows: Carboanhydrase assay. Type of experiment: biochemical. Conditions: 4-nitrophenyl acetate hydrolysis, 60 minutes; read-out: Inhibition of Human Carboanhydrase-2 IC50. The procedure: 2 μl of the test compounds, dissolved in DMSO (100× the final concentration), in a concentration range of 0.03-10 μm (final), was pipetted as 4× determinations into the holes of a 96-hole microtiter plate. Holes that contained the solvent without test compounds were used as reference values (1. Holes without carboanhydrase for correction of the non-enzymatic hydrolysis of the substrate, and 2. Holes with carboanhydrase for determining the activity of the non-inhibited enzyme).
188 μl of assay buffer (10 mmol of Tris/HCl, pH 7.4, 80 mmol of NaCl), with or without 3 units/hole on carboanhydrase I or II, was pipetted into the holes of the microtiter plate.

Another experiment has as its system MaTu-ADR. As to the kind of experiment: Proliferation assay MaTu-ADR. Type of experiment: cell-based. The settings on record: Homo sapiens, 96 h; MaTu-ADR cells, 4 days, crystal violet.
From the text: as §2

Experiment [2] has as its target T3, VEGF receptor tyrosine kinase-2 (Homo sapiens, UniProt P35968).
T3 construct: GST; made in house; host or cells: baculovirus-infected insect cells (Sf9)
As to the kind of experiment: VEGF receptor-2 kinase assay. Conditions: poly-(Glu4Tyr) substrate, 8 μmol ATP; read-out: VEGF-R2 IC50. It is filed as biochemical. As to the method: VEGF Receptor-2 Kinase Assay
Recombinant VEGF receptor tyrosine kinase-2 was purified as a GST fusion protein from baculovirus-infected insect cells (Sf9). Poly-(Glu4Tyr), which was used as a kinase substrate, was purchased by the Sigma Company. VEGF receptor tyrosine kinase (90 ng/measuring point) was incubated for 10 minutes at 22° C. in the presence of various concentrations of test substances (0 μm, as well as within the range of 0.001-30 μm) in 30 μl of assay buffer [40 mmol of Tris/HCl, pH 5.5, 10 mmol of MgCl2, 1 mmol of MnCl2, 3 μmol of Na ortho-vanadate, 1.0 mmol of dithiothreitol, 8 μmol of adenosine trisphosphate (ATP), 0.96 μg/measuring point of poly-(Glu4Tyr), 0.2 μCi/measuring point of 33P-gamma ATP, 1.4% dimethyl sulfoxide]. The reaction was stopped by adding EDTA solution (250 mmol, pH 8.0, 15 μl/measuring point).
as §1

Experiment [3] has as its system NCI-H460, human non-small-cell lung cancer cells. As to the kind of experiment: Proliferation assay H460. Type of experiment: cell-based. The settings on record: NCI-H460, 96 h, 4 days, crystal violet.
From the text: as §2

The subject of experiment [4] is DU 145, hormone-independent human prostate cancer cells. The experiment is described as follows: Proliferation assay DU145. Conditions: DU-145, 96 h, 4 days, crystal violet. Type of experiment: cell-based.
From the text: as §2

T3 sequence (P35968 20-1356): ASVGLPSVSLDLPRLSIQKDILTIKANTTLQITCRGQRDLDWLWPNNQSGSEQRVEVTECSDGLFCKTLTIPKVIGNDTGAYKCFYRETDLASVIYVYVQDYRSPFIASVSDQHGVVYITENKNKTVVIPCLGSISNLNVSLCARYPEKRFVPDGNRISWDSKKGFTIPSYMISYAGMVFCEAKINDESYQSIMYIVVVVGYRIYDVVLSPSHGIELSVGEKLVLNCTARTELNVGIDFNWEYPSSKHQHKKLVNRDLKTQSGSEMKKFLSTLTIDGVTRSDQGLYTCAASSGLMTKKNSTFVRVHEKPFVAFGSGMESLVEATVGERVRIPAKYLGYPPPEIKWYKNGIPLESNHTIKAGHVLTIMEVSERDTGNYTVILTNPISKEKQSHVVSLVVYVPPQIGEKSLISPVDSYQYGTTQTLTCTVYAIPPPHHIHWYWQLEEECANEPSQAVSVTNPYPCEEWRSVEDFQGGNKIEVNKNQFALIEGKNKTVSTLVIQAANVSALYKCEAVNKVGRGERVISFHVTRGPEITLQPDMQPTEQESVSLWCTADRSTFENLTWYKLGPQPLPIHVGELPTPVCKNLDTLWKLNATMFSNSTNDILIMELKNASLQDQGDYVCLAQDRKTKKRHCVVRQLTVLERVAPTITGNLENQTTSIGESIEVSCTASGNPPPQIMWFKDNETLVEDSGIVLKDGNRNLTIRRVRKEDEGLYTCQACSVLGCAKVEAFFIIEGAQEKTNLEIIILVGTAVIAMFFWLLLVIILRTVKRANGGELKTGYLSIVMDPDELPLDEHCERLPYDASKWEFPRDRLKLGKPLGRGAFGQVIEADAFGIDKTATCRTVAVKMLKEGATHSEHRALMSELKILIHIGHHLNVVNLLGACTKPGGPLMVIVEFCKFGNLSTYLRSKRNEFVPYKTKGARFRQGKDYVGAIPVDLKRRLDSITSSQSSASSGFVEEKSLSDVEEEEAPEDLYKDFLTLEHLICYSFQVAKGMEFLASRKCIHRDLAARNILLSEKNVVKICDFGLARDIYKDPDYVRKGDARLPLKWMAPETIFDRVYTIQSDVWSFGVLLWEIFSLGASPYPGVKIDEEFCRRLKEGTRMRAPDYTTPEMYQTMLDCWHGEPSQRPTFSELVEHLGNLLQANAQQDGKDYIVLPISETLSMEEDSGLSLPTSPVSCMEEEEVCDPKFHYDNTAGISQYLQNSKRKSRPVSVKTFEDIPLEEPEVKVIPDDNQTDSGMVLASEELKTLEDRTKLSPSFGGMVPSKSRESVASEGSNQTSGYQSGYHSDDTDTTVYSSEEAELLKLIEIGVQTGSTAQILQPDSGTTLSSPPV
T1 sequence (P06493 whole entry): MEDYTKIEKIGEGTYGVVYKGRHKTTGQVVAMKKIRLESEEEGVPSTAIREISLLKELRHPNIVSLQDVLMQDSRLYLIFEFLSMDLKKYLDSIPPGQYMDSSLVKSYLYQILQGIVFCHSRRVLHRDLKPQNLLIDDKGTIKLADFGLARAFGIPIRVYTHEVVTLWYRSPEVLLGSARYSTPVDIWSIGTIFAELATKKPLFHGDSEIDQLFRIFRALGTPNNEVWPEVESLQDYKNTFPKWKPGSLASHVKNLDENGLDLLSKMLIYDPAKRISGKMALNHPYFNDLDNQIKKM
T1 sequence (P14635 whole entry partner): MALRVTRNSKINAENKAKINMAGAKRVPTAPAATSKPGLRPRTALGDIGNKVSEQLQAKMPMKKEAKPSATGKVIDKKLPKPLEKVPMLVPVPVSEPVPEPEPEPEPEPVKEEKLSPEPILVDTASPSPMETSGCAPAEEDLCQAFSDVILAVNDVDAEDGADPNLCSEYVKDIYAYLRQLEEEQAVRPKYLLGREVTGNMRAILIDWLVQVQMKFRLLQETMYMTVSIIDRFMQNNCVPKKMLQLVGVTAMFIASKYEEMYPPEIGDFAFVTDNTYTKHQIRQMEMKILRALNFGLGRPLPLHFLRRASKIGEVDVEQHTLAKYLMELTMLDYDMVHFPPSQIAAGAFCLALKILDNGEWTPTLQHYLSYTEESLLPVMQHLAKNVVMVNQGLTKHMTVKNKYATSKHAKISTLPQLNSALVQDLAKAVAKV

Usually IC50 stands for the point on the concentration scale where inhibition reaches its midpoint. As to `Cc1cc(Nc2ncc(Br)c(O[C@H](C)[C@@H](C)O)n2)cc(C)c1S(N)(=O)=O` [Example 6, 4-[5-Bromo-4-((1R,2R)-2-hydroxy-1-methyl-propoxy)-pyrimidin-2-ylamino]-2,6-dimethyl-benzenesulfonamide], the IC50 is 8 nM on CDK1/CycB; 50 nM in experiment [1]; 8 nM against CDK2/CycE; greater than 10000 nM at Human Carboanhydrase-2; 20 nM in the experiment with MaTu-ADR; 39 nM in experiment [2]. The IC50 in experiment [3] and in experiment [4] was 50 nM throughout.
Regarding `Cc1cc(Nc2ncc(Br)c(N[C@H](C)[C@@H](C)O)n2)cc(C)c1S(N)(=O)=O` [Example 3], the 50% inhibitory concentration (IC50) is 5 nM at CDK1/CycB; less than 100 nM in experiment [1]; 6 nM at CDK2/CycE; greater than 10000 nM on Human Carboanhydrase-2; 40 nM in the experiment on MaTu-ADR; 19 nM in experiment [2]. The results for the half-inhibitory concentration (IC50) in experiment [3] and in experiment [4] were 50 nM and 70 nM, respectively.
Consider `Cc1cc(Nc2ncc(Br)c(O[C@H](C)[C@@H](C)O)n2)cc(Br)c1S(N)(=O)=O` [Example 7], for which the IC50 worked out at 12 nM on CDK1/CycB; 120 nM in experiment [1]; 15 nM against CDK2/CycE; 6000 nM on Human Carboanhydrase-2; 50 nM in the experiment with MaTu-ADR; 56 nM in experiment [2]. In addition, the IC50 in experiment [3] and in experiment [4] was 160 nM each time.
`Cc1cc(Nc2ncc(Br)c(N[C@H](C)C(C)(C)O)n2)cc(C)c1S(N)(=O)=O` [Example 2]: the IC50 at CDK1/CycB is 3 nM; in experiment [1], less than 100 nM; against CDK2/CycE, 2 nM; on Human Carboanhydrase-2, greater than 10000 nM; with MaTu-ADR, 70 nM; in experiment [2], 20 nM. Besides, the IC50 in experiment [3] amounted to 130 nM; in experiment [4], 90 nM.
As for `C[C@@H](O)[C@@H](C)Nc1nc(Nc2ccc(S(N)(=O)=O)cc2)ncc1Br` [Example 275 from WO 02/096888, 4-[5-Bromo-4-((1R,2R)-2-hydroxy-1-methyl-propylamino)-pyrimidin-2-ylamino]-benzenesulfonamide, reference compound], the IC50 against CDK1/CycB is less than 10 nM; in experiment [1] it was 50 nM; against CDK2/CycE, less than 10 nM; at Human Carboanhydrase-2, 810 nM; in the experiment with MaTu-ADR it was 20 nM; in experiment [2], 130 nM. Further, the IC50 was 40 nM in experiment [3] and 70 nM in experiment [4].
`Cc1cc(Nc2ncc(Br)c(N[C@H](C)CO)n2)cc(C)c1S(N)(=O)=O` [Example 1, 4-[5-Bromo-4-((R)-2-hydroxy-1-methyl-ethylamino)-pyrimidin-2-ylamino]-2,6-dimethyl-benzenesulfonamide]: the IC50 against CDK1/CycB was 15 nM; in experiment [1] it was 600 nM; against CDK2/CycE, 14 nM; at Human Carboanhydrase-2, greater than 10000 nM; in the experiment with MaTu-ADR, 400 nM; in experiment [2], 18 nM. Moreover, the 50% inhibitory concentration (IC50) in experiment [3] came to 300 nM; in experiment [4] it was 400 nM.
As to `Cc1cc(Nc2ncc(Br)c(N[C@H](C)[C@@H](C)O)n2)cc(Cl)c1S(N)(=O)=O` [Example 4], the concentration for half-maximal inhibition (IC50) on CDK1/CycB is 5 nM; in experiment [1], 120 nM; against CDK2/CycE, 10 nM; in the experiment with MaTu-ADR, less than 100 nM; in experiment [2], 130 nM; in experiment [3], less than 100 nM. For the same molecule, in experiment [4], half-maximal inhibition (IC50) was put at 100 nM.
`C[C@@H](Nc1nc(Nc2ccc(S(N)(=O)=O)cc2)ncc1Br)C(C)(C)O` [Example 271 from WO 02/096888, 4-[5-Bromo-4-((R)-2-hydroxy-1,2-dimethyl-propylamino)-pyrimidin-2-ylamino]-benzenesulfonamide, reference compound]: the half-maximal inhibitory concentration (IC50) at CDK1/CycB is less than 10 nM; in experiment [1] it was 180 nM; against CDK2/CycE, less than 10 nM; at Human Carboanhydrase-2 it was 530 nM; in the experiment with MaTu-ADR it was less than 100 nM; in experiment [2] it was 250 nM. In addition, the results for the IC50 in experiment [3] and in experiment [4] were 200 nM and 150 nM, respectively.
